Values quoted from earlier work as cited in patent US20240105341A1, “SYSTEMS AND METHODS FOR ESTIMATING TUMOR GROWTH” (AMGEN INC., priority 2022, published 2024).
Where two headings read alike, the source gives them in different places.

Columns and labels:
[1] = tested on: metastatic, castration-resistant prostate cancer (mCRPC); conditions: FIRSTANA 2017, phase 3, chemo-naive
[2] = tested on: metastatic, castration-resistant prostate cancer (mCRPC); conditions: PREVAIL 2014, phase 3, chemo-naive

| Structure (SMILES) | CR (number of complete responders) [1] | Median PFS [1] | PR + CR (number of responders) [1] | CR (number of complete responders) [2] | PR + CR (number of responders) [2] |
| --- | --- | --- | --- | --- | --- |
| CC(=O)O[C@@]12CO[C@@H]1C[C@H](O)[C@@]1(C)C(=O)[C@H](O)C3=C(C)[C@@H](OC(=O)[C@H](O)[C@@H](NC(=O)OC(C)(C)C)c4ccccc4)C[C@@](O)([C@@H](OC(=O)c4ccccc4)[C@H]21)C3(C)C [Doce75] | 1 | 5.3 | 54 |  |  |
| CNC(=O)c1ccc(N2C(=S)N(c3ccc(C#N)c(C(F)(F)F)c3)C(=O)C2(C)C)cc1F [Enza] |  |  |  | 78 | 233 |
| CO[C@H]1C(=O)[C@]2(C)[C@@H](OC)C[C@H]3OC[C@@]3(OC(C)=O)[C@H]2[C@H](OC(=O)c2ccccc2)[C@]2(O)C[C@H](OC(=O)[C@H](O)[C@@H](NC(=O)OC(C)(C)C)c3ccccc3)C(C)=C1C2(C)C [Caba20] | 1 | 4.4 | 61 |  |  |
